Data taken from patent US12161686B2, “Natural preservatives and antimicrobial agents, including compositions thereof” (Unigen, Inc., priority 2015, dated 2024).

Experiments:
Format in all cases: cell-based
[1] = system: Candida albicans (ATCC 10231); test: Minimum Inhibitory Concentration Method (MIC/MBC), broth dilution; FIC index
Procedure: (§1) Minimum Inhibitory Concentration against bacterial S. aureus, P. aeruginosa, E. coli, and fungi A. brasiliensis and C. albicans were determined for Albizia amara seeds extract and the active marker compound bundmunchiamine C. The Minimum Inhibitory Concentration Method (MIC) is carried out following the general microbiological protocol to measure the lowest level of an antimicrobial agent that can inhibit microbial proliferation in liquid. Test microorganisms are prepared in liquid culture medium for bacteria or on agar for fungi. Suspensions of test microorganisms are standardized by dilution in appropriate broth solution, usually Mueller-Hinton broth. […]
(§2) In vitro antifungal combinations are commonly evaluated on the basis of the fractional inhibitory concentration (FIC) index, which represents the sum of the FIC of each substance tested. […]
(§3) The fractional inhibitory concentration (FIC) was calculated with the equation: FIC of drug A (FIC A)=MIC of drug A in combination/MIC of drug A alone, and FIC of drug B (FIC B)=MIC of drug B in combination/MIC of drug B alone]. The FIC Index (FICI), calculated as the sum of each FIC (YFIC). The calculated index of 1A:1M and 1A:3M against C. albicans were 0.187 and 0.292. […]

[2] = system: Aspergillus brasiliensis (ATCC 16404); test: as above
Procedure: as §1, §2, §3

Streptococcus pyogenes = test: Minimum Inhibitory Concentration Method (MIC/MBC)
[3] = system: Pseudomonas aeruginosa (ATCC 9027); test: Minimum Inhibitory Concentration Method (MIC/MBC), broth dilution
Procedure: (§4) Minimum Inhibitory Concentration against bacterial S. aureus, P. aeruginosa, E. coli, and fungi A. brasiliensis and C. albicans were determined for Albizia amara seeds extract and the active marker compound bundmunchiamine C. The Minimum Inhibitory Concentration Method (MIC) is carried out following the general microbiological protocol to measure the lowest level of an antimicrobial agent that can inhibit microbial proliferation in liquid. Test microorganisms are prepared in liquid culture medium for bacteria or on agar for fungi. Suspensions of test microorganisms are standardized by dilution in appropriate broth solution, usually Mueller-Hinton broth. The test substance is prepared by conducting several serial 1:1 dilutions in a 96-well microtiter plate or in small test tubes, through Mueller-Hinton broth or other appropriate medium. All wells or tubes containing diluted test substances are inoculated with test microorganisms, individually, resulting in one additional and final dilution of the product in all test vessels. The microtiter plate or test tubes are incubated for 18-24 hours. After the incubation period, observations are made to determine the minimum concentration (MIC) which is the lowest concentration of test substance in a well where no turbidity (indicative of test microorganism growth) is observed and minimum bactericidal concentration (MBC).
(§5) The Albizia amara seeds extract RN368-31-MIX and budmunchiamine C were tested against five microorganisms required for category 2 including Staphylococcus aureus (ATCC 6538), Escherichia coli (ATCC 8739), Pseudomonas aeruginosa (ATCC 9027), Candida albicans (ATCC 10231), Aspergillus brasiliensis (ATCC 16404).

[4] = system: Escherichia coli (ATCC 8739); test: as above
Procedure: as §4, §5

[5] = system: Staphylococcus aureus (ATCC 6538); test: as above
Procedure: as §4, §5

budmunchiamine C
MBC Candida albicans [1]: 125 µg/mL | MIC Aspergillus brasiliensis [2]: 125 µg/mL | MIC Streptococcus pyogenes (Streptococcus pyogenes): < 0.97 µg/mL | MBC Pseudomonas aeruginosa [3]: 62.5 µg/mL | MIC Pseudomonas aeruginosa [3]: 62.5 µg/mL | MBC Escherichia coli [4]: 31.25 µg/mL | MIC Escherichia coli ([4]; neutral condition): 31.25 µg/mL | MBC Staphylococcus aureus [5]: 31.25 µg/mL | MIC Staphylococcus aureus [5]: 31.25 µg/mL
